Patent publication US12304912B2, “Fused bicyclic RAF inhibitors and methods for use thereof” (Jazz Pharmaceuticals Ireland Limited, priority 2020, dated 2025)
In brackets after ≈: the same amount, converted by molar mass.

Assay: FeSSIF solubility assay
Type: physicochemical
Conditions: fed state simulated intestinal fluid (FeSSIF), thermodynamic from solid, pH 5 acetate buffer, 37° C., read-out: FESSIF Sol
Experimental: FeSSIF Solubility Assay 1 mL of fed state simulated intestinal fluid (FeSSIF), prepared using FaSSIF/FeSSIF/FaSSGF powder (Biorelevant.com) and pH 5 acetate buffer, was added to 1.0 mg of compound and then incubated for 24 h (Bioshake iQ, 650 rpm, 37° C.). Following filtration under positive pressure, the concentration of compound in solution was assessed by LC-UV in comparison to the response for a calibration standard of known concentration (250 μM). FeSSIF solubility results are described in Tables 1-2.
For O=C(Nc1cc(Oc2ccc3c(c2)CC(c2nc(-c4ccccc4)c[nH]2)CO3)ccn1)C1CC1 (racemic) [Compound 136], the solubility thermodynamic at 24 h was 17.1 µg/mL (≈ 37.8 µM). O=C1CCc2c(Oc3ccc4c(c3)CC(c3nc(-c5ccnc(C(F)F)c5)c[nH]3)CO4)ccnc2N1 (stereo not shown) [Compound 101, 5-[3-[4-[2-(difluoromethyl)-4-pyridyl]-1H-imidazol-2-yl]chroman-6-yl]oxy-3,4-dihydro-1H-1,8-naphthyridin-2-one] showed a solubility thermodynamic at 24 h of 5.7 µg/mL (≈ 11.6 µM). O=C1CCc2c(Oc3ccc4c(c3)CC(c3nc(-c5cncc(C(F)(F)F)c5)c[nH]3)CO4)ccnc2N1 (stereo not shown) [Compound 103, 5-[3-[4-[5-(trifluoromethyl)-3-pyridyl]-1H-imidazol-2-yl]chroman-6-yl]oxy-3,4-dihydro-1H-1,8-naphthyridin-2-one] showed a solubility thermodynamic at 24 h of 5.2 µg/mL (≈ 10.2 µM). O=C1CCc2c(Oc3ccc4c(c3)CC(c3nc(-c5cncc(C(F)F)c5)c[nH]3)CO4)ccnc2N1 (stereo not shown) [Compound 105, 5-[3-[4-[5-(difluoromethyl)-3-pyridyl]-1H-imidazol-2-yl]chroman-6-yl]oxy-3,4-dihydro-1H-1,8-naphthyridin-2-one] showed a solubility thermodynamic at 24 h of 8.6 µg/mL (≈ 17.6 µM). Cc1cc(-c2c[nH]c(C3COc4ccc(Oc5ccnc6c5CCC(=O)N6)cc4C3)n2)n(C)n1 (stereo not shown) [Compound 106, 5-[3-[4-(2,5-dimethylpyrazol-3-yl)-1H-imidazol-2-yl]chroman-6-yl]oxy-3,4-dihydro-1H-1,8-naphthyridin-2-one] gave a solubility thermodynamic at 24 h of 28.1 µg/mL (≈ 61.6 µM). Compound Cc1ccc(-c2c[nH]c(C3COc4ccc(Oc5ccnc6c5CCC(=O)N6)cc4C3)n2)s1 (stereo not shown) [Compound 110] has a solubility thermodynamic at 24 h of 8.5 µg/mL (≈ 18.5 µM). CCc1cc(-c2c[nH]c(C3COc4ccc(Oc5ccnc6c5CCC(=O)N6)cc4C3)n2)n(C)n1 (stereo not shown) [Compound 111] showed a solubility thermodynamic at 24 h of 70 µg/mL (≈ 149 µM). Cc1cc(-c2c[nH]c(C3COc4ccc(Oc5ccnc6c5CCC(=O)N6)cc4C3)n2)n(C(C)C)n1 (stereo not shown) [Compound 112, 5-[3-[4-(2-isopropyl-5-methyl-pyrazol-3-yl)-1H-imidazol-2-yl]chroman-6-yl]oxy-3,4-dihydro-1H-1,8-naphthyridin-2-one] showed a solubility thermodynamic at 24 h of 51.1 µg/mL (≈ 105 µM). In the case of CCc1cc(-c2c[nH]c(C3COc4ccc(Oc5ccnc6c5CCC(=O)N6)cc4C3)n2)n(C2CC2)n1 (stereo not shown) [Compound 113, 5-[3-[4-(2-cyclopropyl-5-ethyl-pyrazol-3-yl)-1H-imidazol-2-yl]chroman-6-yl]oxy-3,4-dihydro-1H-1,8-naphthyridin-2-one], the solubility thermodynamic at 24 h is reported as 140 µg/mL (≈ 281 µM). For Cc1cc(-c2c[nH]c(C3COc4ccc(Oc5ccnc6c5CCC(=O)N6)cc4C3)n2)n(C2CC2)n1 (stereo not shown) [Compound 114, 5-[3-[4-(2-cyclopropyl-5-methyl-pyrazol-3-yl)-1H-imidazol-2-yl]chroman-6-yl]oxy-3,4-dihydro-1H-1,8-naphthyridin-2-one], the solubility thermodynamic at 24 h was 497 µg/mL (≈ 1030 µM). With CC(C)(C)CCc1c[nH]c(C2COc3ccc(Oc4ccnc5c4CCC(=O)N5)cc3C2)n1 (stereo not shown) [Compound 115, 5-[3-[4-(3,3-dimethylbutyl)-1H-imidazol-2-yl]chroman-6-yl]oxy-3,4-dihydro-1H-1,8-naphthyridin-2-one] the solubility thermodynamic at 24 h was 129 µg/mL (≈ 289 µM). Compound CC(C)CCc1c[nH]c(C2COc3ccc(Oc4ccnc5c4CCC(=O)N5)cc3C2)n1 (stereo not shown) [Compound 116] has a solubility thermodynamic at 24 h of 311 µg/mL (≈ 720 µM). Work on Cc1cc(-c2c[nH]c(C3COc4ccc(Oc5ccnc6c5CCC(=O)N6)cc4C3)n2)ccn1 (stereo not shown) [Compound 117, 5-[3-[4-(2-methyl-4-pyridyl)-1H-imidazol-2-yl]chroman-6-yl]oxy-3,4-dihydro-1H-1,8-naphthyridin-2-one] yielded a solubility thermodynamic at 24 h of 1.4 µg/mL (≈ 3.09 µM). For COc1csc(-c2c[nH]c(C3COc4ccc(Oc5ccnc6c5CCC(=O)N6)cc4C3)n2)c1 (stereo not shown) [Compound 122, 5-[3-[5-(4-methoxy-2-thienyl)-1H-imidazol-2-yl]chroman-6-yl]oxy-3,4-dihydro-1H-1,8-naphthyridin-2-one], the solubility thermodynamic at 24 h was 124 µg/mL (≈ 260 µM). COc1ccsc1-c1c[nH]c(C2COc3ccc(Oc4ccnc5c4CCC(=O)N5)cc3C2)n1 (stereo not shown) [Compound 123] gave a solubility thermodynamic at 24 h of 156 µg/mL (≈ 330 µM). For CCn1nc(C)cc1-c1c[nH]c(C2COc3ccc(Oc4ccnc5c4CCC(=O)N5)cc3C2)n1 (stereo not shown) [Compound 124, 5-[3-[4-(2-ethyl-5-methyl-pyrazol-3-yl)-1H-imidazol-2-yl]chroman-6-yl]oxy-3,4-dihydro-1H-1,8-naphthyridin-2-one], the solubility thermodynamic at 24 h was 3 µg/mL (≈ 6.38 µM). Cn1nc(C2CC2)cc1-c1c[nH]c(C2COc3ccc(Oc4ccnc5c4CCC(=O)N5)cc3C2)n1 (stereo not shown) [Compound 125, 5-[3-[4-(5-cyclopropyl-2-methyl-pyrazol-3-yl)-1H-imidazol-2-yl]chroman-6-yl]oxy-3,4-dihydro-1H-1,8-naphthyridin-2-one] showed a solubility thermodynamic at 24 h of 22 µg/mL (≈ 45.6 µM). Work on Cc1cc(-c2c[nH]c(C3COc4ccc(Oc5ccnc6c5CCC(=O)N6)cc4C3)n2)n(CC(F)(F)F)n1 (stereo not shown) [Compound 126, 5-[3-[4-[5-methyl-2-(2,2,2-trifluoroethyl)pyrazol-3-yl]-1H-imidazol-2-yl]chroman-6-yl]oxy-3,4-dihydro-1H-1,8-naphthyridin-2-one] yielded a solubility thermodynamic at 24 h of under 1.3 µg/mL. Work on O=C1CCc2c(Oc3ccc4c(c3)CC(c3nc(-c5ccc(C(F)(F)F)nc5)c[nH]3)CO4)ccnc2N1 (stereo not shown) [Compound 127, 5-[3-[4-[6-(trifluoromethyl)-3-pyridyl]-1H-imidazol-2-yl]chroman-6-yl]oxy-3,4-dihydro-1H-1,8-naphthyridin-2-one] yielded a solubility thermodynamic at 24 h of 6 µg/mL (≈ 11.8 µM). Compound O=C1CCc2c(Oc3ccc4c(c3)CC(c3nc(-c5cccnc5C(F)(F)F)c[nH]3)CO4)ccnc2N1 (stereo not shown) [Compound 128, 5-[3-[4-[2-(trifluoromethyl)-3-pyridyl]-1H-imidazol-2-yl]chroman-6-yl]oxy-3,4-dihydro-1H-1,8-naphthyridin-2-one] has a solubility thermodynamic at 24 h of 1.6 µg/mL (≈ 3.15 µM). Work on O=C1CCc2c(Oc3ccc4c(c3)CC(c3nc(C5CCOCC5)c[nH]3)CO4)ccnc2N1 (stereo not shown) [Compound 132, 5-[3-(4-tetrahydropyran-4-yl-1H-imidazol-2-yl)chroman-6-yl]oxy-3,4-dihydro-1H-1,8-naphthyridin-2-one] yielded a solubility thermodynamic at 24 h of 41.9 µg/mL (≈ 93.8 µM). O=C(Nc1cc(Oc2ccc3c(c2)CC(c2nc(-c4ccccc4)c[nH]2)CO3)ccn1)C1CC1(F)F (stereo not shown) [Compound 137, 2,2-difluoro-N-[4-[3-(4-phenyl-1H-imidazol-2-yl)chroman-6-yl]oxy-2-pyridyl]cyclopropanecarboxamide] showed a solubility thermodynamic at 24 h of 73.9 µg/mL (≈ 151 µM). Compound O=C(Nc1cc(Oc2ccc3c(c2)CC(c2nc(-c4ccccc4)c[nH]2)CO3)ccn1)C1CC(F)(F)C1 (stereo not shown) [Compound 139] has a solubility thermodynamic at 24 h of 107 µg/mL (≈ 212 µM).

Same assay, conditions: fed state simulated intestinal fluid (FeSSIF), thermodynamic from solid, pH 5 acetate buffer, 37° C., read-out: Sol (FESSIF)
With O=C1CCc2c(Oc3ccc4c(c3)CC(c3nc(-c5ccnc(C(F)(F)F)c5)c[nH]3)CO4)ccnc2N1 (stereo not shown) [Compound 8, 5-[3-[4-[2-(trifluoromethyl)-4-pyridyl]-1H-imidazol-2-yl]chroman-6-yl]oxy-3,4-dihydro-1H-1,8-naphthyridin-2-one] the solubility thermodynamic at 24 h was 18.5 µg/mL (≈ 36.5 µM). Work on COc1cc(-c2c[nH]c(C3COc4ccc(Oc5ccnc6c5CCC(=O)N6)cc4C3)n2)ccn1 (stereo not shown) [Compound 19, 5-[3-[4-(2-methoxy-4-pyridyl)-1H-imidazol-2-yl]chroman-6-yl]oxy-3,4-dihydro-1H-1,8-naphthyridin-2-one] yielded a solubility thermodynamic at 24 h of 19.6 µg/mL (≈ 41.7 µM). O=C1CCc2c(Oc3ccc4c(c3)CC(c3nc5cc(Cl)ccc5[nH]3)CO4)ccnc2N1 (stereo not shown) [Compound 25] gave a solubility thermodynamic at 24 h of 1.8 µg/mL (≈ 4.03 µM). O=C1CCc2c(Oc3ccc4c(c3)CN(C(=O)Nc3ccc(C(F)(F)F)cc3)CC4)ccnc2N1 [Compound 47] gave a solubility thermodynamic at 24 h of 27.5 µg/mL (≈ 57 µM).

Same assay, conditions: pH 5 acetate buffer, 24 h, 37° C.
With O=C1CCc2c(Oc3ccc4c(c3)CC(c3nc(-c5ccnc(C(F)(F)F)c5)c[nH]3)CO4)ccnc2N1 (stereo not shown) [Compound 8, 5-[3-[4-[2-(trifluoromethyl)-4-pyridyl]-1H-imidazol-2-yl]chroman-6-yl]oxy-3,4-dihydro-1H-1,8-naphthyridin-2-one] the “FESSIF Sol” value was 18.5 mg/L.
